The values that follow come from patent publication US12023317B2, “Composition for ameliorating psoriasis comprising cimicifugolide a as active ingredient” (KOREA INSTITUTE OF SCIENCE AND TECHNOLOGY, priority 2021, dated 2024).

The subject of the assay is psoriasis. Description: psoriasis-induced group: skin moisture, damaged area, skin morphology, inflammation. The settings on record: when cimicifugolide A is administered. It is filed as in vivo.

Structures are written as SMILES.

In the case of `CC(C)=CC1OC(=O)/C(=C\CO)C1O` (stereo not shown) [cimicifugolide A, (Z)-4-Hydroxy-3-(2-hydroxyethylidene)-5-(2-methylprop-1-en-1-yl)dihydrofuran-2(3H)-one], the inflammation expression result is listed as “inhibition”, the moisture content result is “increased”, the moisture loss entry was “decreased” and the skin morphological changes entry is listed as “inhibition”.
